Source: article PMC8268887, “Peptide/β-Peptoid Hybrids with Ultrashort PEG-Like Moieties: Effects on Hydrophobicity, Antibacterial Activity and Hemolytic Properties” (International Journal of Molecular Sciences, 2021)
Values after ≈ are worked out from the molar mass of the structure shown. Where two headings read alike, the source gives them in different places.

What was measured:
[1] = Hydrophobicity by retention in analytical RP-HPLC (% MeCN at peak elution); type: physicochemical; details: for % MeCN at Elution, Aeris Peptide: Phenomenex Aeris Peptide XB-C18 column; for % MeCN at Elution, Aeris Peptide / % MeCN at Elution, Luna Omega / % MeCN at Elution, Supelco Discovery: gradient 0→60% B during 15 min; for % MeCN at Elution, Luna: Phenomenex Luna C18(2) column, RP-HPLC gradient 0→60% B during 15 min, relative hydrophobicity; for % MeCN at Elution, Luna Omega: Phenomenex Luna Omega Polar C18 column; for % MeCN at Elution, Supelco Discovery: Supelco Discovery BIO Wide pore C18 column
Protocol: For each peptide/β-peptoid hybrid oligomer, the retention time in RP-HPLC was measured on four different columns (details shown in Table 2): Phenomenex Luna C18(2) column (recommended for hydrophobic compounds [49]), Phenomenex Luna Omega Polar C18 column (recommended for both very polar and non-polar compounds [50]) as well as Phenomenex Aeris Peptide XB-C18 [51] and Sigma-Aldrich Supelco Discovery BIO Wide pore C18 [52] columns, which both are recommended for analysis of peptides. The retention times of the compounds on each column were used to calculate the acetonitrile concentration at peak elution (denoted merely as % MeCN; Table 1). As expected, the % MeCN for each compound varied somewhat between the four columns.
Starting materials and solvents were acquired from commercial suppliers (Iris Biotech, Markredwitz, Germany; Fluorochem, Hadfield, UK; and Merck, Darmstadt, Germany) and used without further purification. Water used for analytical and preparative high-performance liquid chromatography (HPLC) was filtered through a 0.22-μm capsule filter using an Evoqua LaboStar Pro TWF UV system. Purity and retention time of each peptidomimetic were determined by analytical HPLC by using a Phenomenex Luna Omega Polar C18 column (150 × 4.6 mm; particle size: 3 μm; pore size: 100 Å) on a Shimadzu Prominence and Shimadzu Nexera system using an aqueous acetonitrile (MeCN, VWR, Søborg, Denmark) gradient with 0.1% trifluoroacetic acid (TFA, Iris Biotech, Markredwitz, Germany) added (eluent A: 5:95 MeCN–H2O + 0.1% TFA, eluent B: 95:5 MeCN–H2O + 0.1% TFA); a flow rate of 0.8 mL/min was used. For elution of peptidomimetics, a linear gradient of 0% to 60% B during 15 min was used with UV detection at λ = 220 nm. […] Retention time of each peptidomimetic was also determined by using a Phenomenex Luna C18(2) column (150 × 4.6 mm; particle size: 3 μm; pore size: 100 Å), a Phenomenex Aeris Peptide XB-C18 column (150 × 4.6 mm; particle size: 3.6 μm; pore size: 100 Å), and a Sigma-Aldrich Supelco Discovery BIO Wide pore C18 column (150 × 4.6 mm, particle size: 3 µm; pore size: 300 Å). For each peptidomimetic, the percentage of MeCN at peak elution was calculated from the retention time by using the following formula:(1) %MeCN =0.95 (0.6Rt/15 min)+0.05 (1−0.6Rt/15 min)

E. coli ATCC 25922 = type: cell-based, Escherichia coli; details: ATCC 25922, 20 h
Protocol: (§1) MIC values of the peptidomimetics were evaluated by using the modified Hancock lab protocol in non-binding polystyrene microtiter plates. Bacterial suspensions of ~5 × 10^5 CFU/mL in Mueller-Hinton broth (Difco, Sparks, MD, USA) were prepared with Mg^2+ and Ca^2+ concentrations of 4 mg/L each. The compounds were dissolved in H2O and diluted in 0.01% acetic acid, 0.2% BSA (final concentration). Aliquots (11 µL) of test compounds were then transferred to wells containing bacterial suspensions (100 µL). Low-binding sterile tubes and tips (Axygen, Union City, CA, USA) were used for preparation and transfer of the solutions of the compounds. Following incubation for 20 h of the covered plates at 35 °C (±2 °C) with circular shaking at 180 rpm, the MICs were read.

E. coli NMI 3371/16 = type: cell-based, Escherichia coli; details: NMI 3371/16, 20 h
Protocol: as §1

E. coli NMI 3898/15 = type: cell-based, Escherichia coli; details: NMI 3898/15, 20 h
Protocol: as §1

E. faecalis ATCC 29212 = type: cell-based; details: ATCC 29212, 20 h
Protocol: as §1

K. pneumoniae ATCC 13883 = type: cell-based
Protocol: as §1

[2] = test system: P. aeruginosa NMI 7197/19; type: cell-based, Pseudomonas aeruginosa; details: NMI 7197/19, 20 h
Protocol: as §1

P. aeruginosa PAO1 = type: cell-based, Pseudomonas aeruginosa; details: PAO1, 20 h
Protocol: as §1

A. baumannii ATCC 19606 = type: cell-based, Acinetobacter baumannii; details: ATCC 19606, 20 h
Protocol: as §1

A. baumannii NMI 3658/17 = type: cell-based, Acinetobacter baumannii; details: NMI 3658/17, 20 h
Protocol: as §1

S. aureus ATCC 29213 = type: cell-based, Staphylococcus aureus; details: ATCC 29213, 20 h
Protocol: as §1

[3] = Determination of hemolytic activity; type: cell-based; details: red blood cell suspension in PBS buffer, human red blood cells at 400 µg/mL, 37 °C
Protocol: The lysis of human red blood cells was measured almost as previously described, albeit with modifications. In brief, a suspension of freshly drawn human red blood cells (hRBCs) was washed three times with PBS buffer and centrifuged two times for 5 min at 2500 rpm. A two-fold serial dilution of compounds in PBS buffer was prepared. Plates (conical-bottomed 96-well plates) with three replicate wells per dilution, each containing 1% red blood cell suspension, were prepared and dosed with the test compound to achieve a final concentration of 400 μg/mL in a total volume of 100 μL. The plates were incubated (37 °C) for 60 min with mild agitation, and then the cells were pelleted by centrifugation at 1500 rpm for 5 min. The supernatants (50 μL) were then transferred to a fresh 96-well plate, and the concentration of hemoglobin was detected by measuring the OD at 405 nm. The OD of cells incubated with 1% SDS defined 100% hemolysis, while the OD of cells incubated with PBS buffer defined 0% hemolysis. The concentration tested was 400 μg/mL (only average values are stated in Table 5). The percent hemolysis was calculated by using the formula:(3) Hemolysis (%)=100×[Asample−Aneg.control/Apos.control−Aneg.control]

[4] = Antiproliferative activity on HepG2 cell line (MTT assay); type: cell-based; details: HepG2 cells; at 1280 µg/mL, value in parenthesis; read-out: HepG2 cell viability at highest concentration tested
Protocol: (§2) Effect of compounds on mammalian cell viability was estimated on the HepG2 cell line ATCC HB-8065. In brief, HepG2 cells were seeded into flat-bottomed 96-well plates at a concentration of 5000 cells per well. Subsequently, the cells were incubated for 24 h in a humidified incubator (5% CO2, 37 °C). Then, the medium was removed, and the cells were incubated for 48 h in a humidified incubator (5% CO2, 37 °C) with peptidomimetics in serial dilutions. Then, an 3-(4,5-dimethylthiazol-2-yl)-2,5-diphenyltetrazolium bromide (MTT) assay was performed as previously described. In brief, after incubation with the test compounds, the culture medium was removed, and then fresh medium with 0.2 mg/mL MTT was added into each well of the plate. The cells were then incubated (3 h, 37 °C, 5% CO2), followed by removal of the medium with MTT and addition of 200 μL dimethyl sulfoxide at once to each sample. Absorbance of MTT was measured using the spectrophotometer TECAN Infinite M1000 at 540 nm. The relative viability was calculated by using the formula: ODtreated cells × 100/ODcontrol cells. The IC50 values are calculated by using the program Graph Pad Prism® 5.0. For all compounds, the test range was 10–1280 μg/mL.

[5] = test system: HepG2 cell line ATCC HB-8065; experiment: as above; type: cell-based; details: inhibition of growth of HepG2 cells, 48 h, MTT; highest concentration tested 1280 µg/mL
Protocol: as §2

Row | SMILES | % MeCN at Elution, Aeris Peptide [1] [% MeCN] | % MeCN at Elution, Luna [1] [% MeCN] | % MeCN at Elution, Luna Omega [1] [% MeCN] | % MeCN at Elution, Supelco Discovery [1] [% MeCN] | MIC against E. coli (E. coli ATCC 25922) [µM] | MIC, EC (E. coli ATCC 25922) [mg/L] | MIC, E. coli NMI 3371/16 (E. coli NMI 3371/16) [mg/L] | MIC, E. coli NMI 3898/15 (E. coli NMI 3898/15) [mg/L] | MIC, EF (E. faecalis ATCC 29212) [mg/L] | MIC, KP (K. pneumoniae ATCC 13883; ATCC 13883, 20 h) [µg/mL] | MIC, P. aeruginosa NMI 7197/19 [2] [mg/L] | MIC, PA (P. aeruginosa PAO1) [mg/L] | MIC, AB (A. baumannii ATCC 19606) [mg/L] | MIC, A. baumannii NMI 3658/17 (A. baumannii NMI 3658/17) [mg/L] | MIC, SA (S. aureus ATCC 29213) [mg/L] | hemolysis at 60 min [3] [%] | viability at 48 h [4] [%] | HepG2 IC50 [5] [mg/L] | MIC, KP (K. pneumoniae ATCC 13883)
1 | NCCCC[C@H](NC(=O)CCN(Cc1ccc(F)cc1)C(=O)[C@H](CCCCN)NC(=O)CCOCCOCCOCCOCCNC(=O)CCN(Cc1ccc(F)cc1)C(=O)[C@H](CCCCN)NC(=O)CCN(Cc1ccc(F)cc1)C(=O)[C@H](CCCCN)NC(=O)CCOCCOCCOCCOCCNC(=O)CCN(Cc1ccc(F)cc1)C(=O)[C@H](CCCCN)NC(=O)CCN(Cc1ccc(F)cc1)C(=O)[C@@H](N)CCCCN)C(=O)N(CCC(N)=O)Cc1ccc(F)cc1 [Compound 18, H-[X]2-sPEG4-[X]2-sPEG4-[X]2-NH2] | 40.1 | 42.1 | 42.7 | 42.3 | 1.2 to 2.4 | 4 to 8 | 8 to 16 | 16 (≈ 6.79 µM) | >64 | 64 (≈ 27.2 µM) | >64 | >64 | 8 to 16 | 16 (≈ 6.79 µM) | >64 | 8.3 | 41 | ~1280 | –
2 | NCCCC[C@H](NC(=O)CCN(Cc1ccc(F)cc1)C(=O)[C@H](CCCCN)NC(=O)CCN(Cc1ccc(F)cc1)C(=O)[C@H](CCCCN)NC(=O)COCCNC(=O)CCN(Cc1ccc(F)cc1)C(=O)[C@H](CCCCN)NC(=O)CCN(Cc1ccc(F)cc1)C(=O)[C@H](CCCCN)NC(=O)CCN(Cc1ccc(F)cc1)C(=O)[C@@H](N)CCCCN)C(=O)N(CCC(N)=O)Cc1ccc(F)cc1 [Compound 6, H-[X]3-sPEG1-[X]3-NH2] | 39.2 | 41.2 | 41.6 | 41.4 | – | 4 (≈ 2.04 µM) | 4 (≈ 2.04 µM) | 8 (≈ 4.08 µM) | – | – | >64 | 32 (≈ 16.3 µM) | 4 to 8 | 4 (≈ 2.04 µM) | 32 to 64 | 7.7 | 6 | 761 | 64–>64
3 | NCCCC[C@H](NC(=O)CCN(Cc1ccc(F)cc1)C(=O)[C@H](CCCCN)NC(=O)CCN(Cc1ccc(F)cc1)C(=O)[C@H](CCCCN)NC(=O)COCCOCCOCCNC(=O)CCN(Cc1ccc(F)cc1)C(=O)[C@H](CCCCN)NC(=O)CCN(Cc1ccc(F)cc1)C(=O)[C@H](CCCCN)NC(=O)CCN(Cc1ccc(F)cc1)C(=O)[C@@H](N)CCCCN)C(=O)N(CCC(N)=O)Cc1ccc(F)cc1 [Compound 8, H-[X]3-sPEG3-[X]3-NH2] | 39.6 | 41.7 | 42.1 | 41.9 | – | 4 (≈ 1.95 µM) | 4 (≈ 1.95 µM) | 8 (≈ 3.9 µM) | >64 | >64 | >64 | 32 (≈ 15.6 µM) | 4 to 8 | 4 (≈ 1.95 µM) | – | 8.9 | 10 | 601 | –
